Assay results as given in patent publication US20060193772A1, “Drugs for treating cancer” (priority 2003, published 2006).

Test system: multiple myeloma cell line, LP-1 cells
Assay: LP-1 viable cell number (WST-1), doxorubicin and KM 1468 administration methods (Example 3)
Type: cell-based
Settings: 1 μmol/L doxorubicin, 1 μg/mL KM 1468, cells only = 100%
Procedure: Multiple myeloma cell line, LP-1 cells (DSMZ ACC41) were seeded in a 96-well culture plate in an amount of 100 μL/well (10,000 cells). Doxorubicin and anti-IGF monoclonal antibody […] were added, and the mixture was cultured at 37° C. for 3 days. The addition of doxorubicin and KM 1468 to the medium was conducted by the following three methods.
Method 1: Cells were cultured in 150 μL of a medium in which doxorubicin was solely added on day 1, and in 200 μL of a medium in which doxorubicin and KM 1468 were added on days 2 and 3.
Method 2: Cells were cultured in 150 μL of a medium in which KM 1468 were solely added on day 1, and in 200 μL of a medium in which doxorubicin and KM 1468 were added on days 2 and 3.
Method 3: Cells were cultured in a medium comprising doxorubicin and KM 1468 (an amount of the medium is 150 μL on day 1 and 200 μL each on days 2 and 3) for three days.
In all of the foregoing methods, doxorubicin and KM 1468 were added so that the final concentrations of doxorubicin and KM 1468 became 1 μmol/L and 1 μg/mL, respectively.
After the culturing, cell proliferation reagent WST-1 (manufactured by Roche) was added in an amount of 20 μL/well, and the mixture was cultured at 37° C. for from 2 to 3 hours. OD450 was measured with microplate reader M-SPmax 250 (manufactured by Molecular Devices). The number of viable cells after the treatment with the agent was expressed as a relative value when OD450 in which cells were solely added was regarded as 100%.

COc1cccc2c1C(=O)c1c(O)c3c(c(O)c1C2=O)C[C@@](O)(C(=O)CO)C[C@@H]3O[C@H]1C[C@H](N)[C@H](O)[C@H](C)O1 [Doxorubicin] was tested, and the “Relative value of cell number” value (Method 1 group: doxorubicin on day 1, doxorubicin and KM 1468 on days 2 and 3) was 40%, the “Relative value of cell number” value (Method 2 group: KM 1468 on day 1, doxorubicin and KM 1468 on days 2 and 3) was 57% and the “Relative value of cell number” value (Method 3 group: doxorubicin and KM 1468 for three days) was 44%.
